Experimental data published in PMC3236199, “Development of Derivatives of 3, 3′-Diindolylmethane as Potent Leishmania donovani Bi-Subunit Topoisomerase IB Poisons” (PLoS ONE, 2011).

Assays:
[1] = tested on: L. donovani topoisomerase II; assay: Immunoband depletion assay, topoisomerase II; type: cell-based, Leishmania donovani; settings: 50 µM, antibody against ATPase domain of topoisomerase II
Description: Leishmania cells (3×10^7) were cultured in absence and presence of the drugs. Nuclear fractions were isolated as described. Briefly, cells were suspended in hypotonic buffer (10 mM Tris-HCl, pH 7.5, 1 mM EDTA, 0.1 mM EGTA, 1 mM PMSF, 1 mM benzamidine hydrochloride and 5 mM DTT) and homogenized. The homogenate was centrifuged for 10 min at 10,000 g. The pellets were washed and used as the source of nuclear fraction. Thereafter, the nuclear fractions were lysed with 1% SDS and subjected to SDS-PAGE (10%). The proteins were electrophoretically transferred to nitrocellulose membranes and immumobloting of immobilized proteins were carried out using a rabbit polyclonal antibody raised against LdTOP1S for topoisomerase I and ATPase domain of L. donovani topoisomerase II [8].
To rule out the topoisomerase II mediated cleavable complex stabilization by the derivatives, we have carried out immunoband depletion assay with antibody raised against ATPase domain (43 kDa) of L. donovani topoisomerase II.
Supplementary file pone.0028493.s001.tif: Figure S1 Stabilization of topoisomerase-II mediated cleavable complex was determined by immunoband depletion assay. Immunoband depletion of L. donovani topoisomerase II, using an antibody raised against LdTOP2 (ATPase domain, 43 kDa). […]

[2] = tested on: F270L mutant topoisomerase I; settings: cited from earlier work
CT DNA = molecular target: CT DNA; set-up: method as in PMID 17922678; settings: interaction with DNA; read-out: dissociation constant (KD); cited from earlier work
LdTOP1LS = assay: Plasmid cleavage assay; type: biochemical, Leishmania donovani; settings: 20 µM, pHOT1 DNA
Description: Cleavage assay was carried out as described previously. Briefly, 50 fmol of pHOT1 supercoiled DNA (containing topoisomerase I cleavage site) and 100 fmol of reconstituted LdTOP1LS were incubated in standard reaction mixture (50 µl) containing 50 mM Tris/HCl (pH 7.5), 100 mM KCl, 10 mM MgCl2, 0.5 mM DTT, 0.5 mM EDTA and 30 µg/ml BSA in the presence of various concentrations of drugs at 37°C for 30 min. The reactions were terminated by adding 1% SDS and 150 µg/ml proteinase K and further incubated for 1 h at 37°C. DNA samples were electrophoresed in a 1% agarose gel containing 0.5 µg/ml EtBr.
The effect of DIM and its derivatives on L. donovani topoisomerase I was examined by plasmid DNA cleavage assay as described. The topoisomerase reaction has three general mechanistic steps: (i) binding of enzyme to the substrate DNA, (ii) single strand breakage and subsequent strand rotation through the break leading to change in linking number, and (iii) strand religation. The second step of reaction is the introduction of a single-stranded nick in the phosphodiester bond of the DNA, through which an intact strand is allowed to pass. […]

Structure (SMILES)	stabilization of topoisomerase II mediated cleavage complex [1]	sensitivity of F270L topoisomerase I mutant [2]	Kd (CT DNA)	conversion of closed circular DNA (form I) to nicked circular DNA (form II) (LdTOP1LS)
c1ccc2c(Cc3c[nH]c4ccccc34)c[nH]c2c1 [DIM, 3, 3′-diindolyl methane, reference compound]	do not stabilize cleavage complex formation	insensitive	22 µM	
COc1ccc2[nH]cc(Cc3c[nH]c4ccc(OC)cc34)c2c1 [DMODIM, 5,5′-dimethoxy 3,3′-diindolyl methane]				didn't cause conversion of all the form I DNA to form II
